Assay results published in patent publication US12115193B2, “Methods of using RARγ agonists for cancer treatment” (Io Therapeutics, Inc., priority 2021, dated 2024).

Legend:
[1] = tested on: PBMC; experiment: CMV recall antigen-stimulated PBMC: IFNγ production and CFSE proliferation; format: cell-based; settings: four days, vs vehicle control
Method: Peripheral blood mononuclear cells (PBMC) from a cytomegalovirus (CMV)-positive donor were labeled with carboxyfluorescein succinimidyl ester (CFSE) and stimulated with CMV recall antigens at […]. The PBMC were then treated with one of three difference RARγ selective agonists or vehicle (DMSO) control and incubated at 37° C., 5% CO2 for four days. Culture supernatant was harvested and assayed for IFNγ production and the PBMC evaluated for proliferation by flow cytometry for CFSE dilution.
CFSE is a fluorescent reactive cell membrane permeable dye. After it is taken up, CFSE covalently modifies proteins and is retained in cells for long periods of time. The CFSE-modified proteins are generally evenly divided between daughter cells at each division so that fluorescent intensity of the cells falls by have at each division. Thus diminution of the dye's fluorescent signal can be used as a measure of proliferation.

[2] = tested on: Lewis lung carcinoma (LLC) cells; experiment: Lewis lung carcinoma in vitro culture viability, Cell Titer Glo Assay; format: cell-based, mouse
Method: Lewis lung carcinoma (LLC) cells were cultured in vitro the presence of a multiple concentrations of the RARγ agonists GA1E, GA2E, and GA3Ep and viability assessed by the Cell Titer Glo Assay®.

[3] = tested on: TIL in EMT6 tumors; experiment: Flow cytometry of excised EMT6 tumors (Example 4); format: in vivo, mouse
Description: At the end of the study of Example 3, the tumors were excised, the cells disaggregated and dispersed without use of proteases, stained with various agents, and subjected to flow cytometry. FIG. 5A-B present the results of the flow cytometry both as a percentage of cells and as the number of cells per tumor. […] Of these live cells, a substantial proportion were leukocytes (FIG. 5A, “CD45” panels). […] The majority of the T cells were CD4+(FIG. 5A, “CD4” panels), expected to be predominantly helper cells. Of the CD4^+ cells, only small proportions were T memory cells (expected to be predominantly TH1 memory cells) based on intracellular staining for IFNγ (FIG. 5B, “TH IFGγ” panels), TH17 cells based in intracellular staining for IL-17 (FIG. 5B, “TH IL17” panels), or Treg cell based on staining for CD25 and FoxP3 (FIG. 5B, “Treg” panels). About 25-30% of the T cells were CD8^+ (FIG. 5B, “CD8 T” panels), expected to be predominantly cytotoxic cells.

[4] = tested on: EMT6 cells; experiment: EMT6 triple negative breast cancer model, various dosages (Example 5); format: in vivo, mouse
Description: The EMT6 triple negative breast cancer model, essentially as described above, was used to assess the effects of increased dosages of GA2E. The mice were orally administered 10 (n=10), 25 (n=10), or 50 (n=11) mg/kg of GA2E, or vehicle control (n=10) daily for 17 days. […] Two mice in the vehicle control group were terminated at Day 12 with tumors >1500 mm^3.

[5] = tested on: TIL in LLC tumors; experiment: Flow cytometry of LLC tumors, Day 13; format: in vivo, mouse
Description: The mice were sacrificed on Day 13 of the study and the tumors collected and analyzed by flow cytometry. Statistical analysis was by ordinary one-way ANOVA with Tukey's test for significance comparison between groups. Gates were set to identify single cells by forward light scatter, live cells as single cells based on side scatter and staining with the vital stain Fixable Viability Dye eFluor™ 780, white blood cells from live cells based on side scatter and staining with anti-CD45, lymphocytes from white blood cells based on side and forward light scatter, and total T lymphocytes (tot T) from lymphocytes based on side scatter and staining with anti-CD3. Total T lymphocytes were divided into CD4^+ (TH) and CD8^+ (TC) lymphocytes based on staining with and anti-CD4 and CD8 antibodies and subsets assessed (FIG. 20). The following observations were made on a per-mg of tumor tissue basis.

[6] = tested on: EMT6 cells; experiment: EMT6 in vitro culture viability, Cell Titer Glo Assay; format: cell-based, mouse; settings: 5 days
Method: EMT6 cells were cultured in vitro for 5 days the presence of a multiple concentrations of the RARγ agonists GA1E, GA2E, and GA3Ep and viability assessed by the Cell Titer Glo Assay® (Promega).

[7] = tested on: EMT6 cells; experiment: EMT6 syngeneic mouse model of triple negative breast cancer (Example 3); format: in vivo; settings: 21 daily oral doses 10 mg/kg; at the end of the study
Method: The RARγ agonists tazarotenic acid and GA2E were evaluated in the EMT6 syngeneic mouse model of breast cancer. 5×10^5 EMT6 cells were injected into the mammary fat pad of immunocompetent female Balb/c mice. When the tumors reached an average volume of 50-150 mm^3, mice were matched by tumor size into control or treatment groups (n=10-11).
The mice were treated with 21 daily oral doses 10 mg/kg of 1 mg/ml tazarotenic acid or GA2E, or vehicle control, starting on Day 0. Tumor volume was measured, and the mice weighed, on days 0, 1, 3, 6, 8, 10, 13, 15, 17, 20, and 21.

[8] = 10 mg/kg oral daily, end of study

CC1(C)CCC(C)(C)c2cc(C(/C=C/c3ccc(C(=O)O)cc3F)=N/O)ccc21 [GA2E, 3-fluoro-4-((1E,3E)-3-(hydroxyimino)-3-(5,5,8,8-tetramethyl-5,6,7,8-tetrahydronaphthalen-2-yl)prop-1-en-1-yl)benzoic acid]
IFNγ production ([1]; 0.1 to 1000 nM): increased IFNγ production substantially | Proliferation of CD8+ cells (CFSE dilution) ([1]; increase small): increased | effect on viability as concentrations exceeded 10 μM [2]: rapidly became toxic | effect on viability at concentrations below 1 μM [2]: no effect | IC50 ([2]; Mus musculus, Lewis lung carcinoma): 46 µM | T cells (anti-CD3) as mean percentage of the leukocytes in the tumor [3, 8]: about 30% | number of TIL [3, 8]: increased | proportion of CD8+ T cells that were memory cells (intracellular IFNγ) ([3]; vs vehicle control, did not achieve statistical significance): numerically increased | tolerability ([4]; 10 mg/kg oral daily for 17 days): acceptably well-tolerated | mice terminated for excessive weight loss ([4]; 25 mg/kg group (n=10), oral daily): one mouse | inhibiting tumor growth, 25 mg/kg dosage versus 10 mg/kg dosage ([4]; 25 mg/kg oral daily): somewhat more effective | tolerability ([4]; 25 mg/kg oral daily for 17 days): acceptably well-tolerated | weight loss ([4]; 25 mg/kg, only a short excursion): more than 10% | mice terminated for excessive weight loss ([4]; 50 mg/kg oral daily (n=11)): terminated for excessive weight loss not later than Day 12 | tumor inhibition by the 50 mg/kg dosage versus the other dosages ([4]; 50 mg/kg, limited time in the study (to Day 12)): not clearly different | proportion of Treg cells as a percentage of total T cell ([5]; P<0.001): significantly reduced | concentration of T helper cells ([5]; per mg tumor, 10 and 25 mg/kg): did not change significantly | concentration of T regulatory cells ([5]; per mg tumor, 10 and 25 mg/kg): did not change significantly | concentration of central memory CD8+ T cells ([5]; per mg tumor, 10 and 25 mg/kg): did not change significantly | concentration of naïve CD8+ T cells ([5]; per mg tumor, 10 and 25 mg/kg): did not change significantly | concentration of total CD4+ T cells ([5]; per mg tumor, 10 and 25 mg/kg): did not change significantly | concentration of effector memory CD8+ T cells ([5]; per mg tumor, P<0.01 for the 25 mg/kg dosage): increased | concentration of cytotoxic cells (CD8, intracellular IFN-γ) ([5]; per mg tumor, P<0.05 for the 25 mg/kg dosage): increased | concentration of total CD8+ lymphocytes in tumor ([5]; per mg tumor, vs controls, P<0.05 for the 25 mg/kg dosage): increased | effect on viability as concentrations exceeded 10 μM [6]: rapidly became toxic | effect on viability at concentrations below 1 μM [6]: no effect | IC50 ([6]; Mus musculus, 120 h): 19 µM | tumor growth inhibition [7]: 63%
